Reference: US9193731B2, “Antimicrobial compounds and methods of making and using the same” (Melinta Therapeutics, Inc., priority 2009, dated 2015)

The molecules below were run on Escherichia coli strain ATCC25922 (assay: standard microdilution assay to determine minimum inhibitory concentrations (MICs)). Details: Escherichia coli strain ATCC25922, microdilution.
Format: cell-based
How it was run: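 Broth microdilution MIC against E. coli ATCC25922, following CLSI protocols, typically in a 100 microliter final volume. Results reported as +/− relative to a 16 micrograms/ml cutoff.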
`N=C(N)NCCCNCc1ccc(-n2cc3cc(-c4cc(CCCCN)cc(S(N)(=O)=O)c4)[nH]c3nc2=O)cc1` [Compound 2092a] was tested, and the “E. coli ATCC25922 MIC” value was “+ (a “+” indicates that the compound has an MIC value of 16 micrograms/ml or less)”.
In the case of `COc1ccc(CN(C2CCNCC2)S(=O)(=O)c2ccc(-c3cc4cn(-c5ccc(C(=O)NCCCNC(=N)N)cc5)c(=O)nc4[nH]3)cc2)cc1[N+](=O)[O-]` [Compound 1114], the “E. coli ATCC25922 MIC” value is reported as “+ (a “+” indicates that the compound has an MIC value of 16 micrograms/ml or less)”.
`N=C(N)NCCCNC(=O)c1ccc(-n2cc3cc(-c4ccc(S(=O)(=O)N(CC5COc6ccccc6O5)C5CCNCC5)cc4)[nH]c3nc2=O)cc1` (stereo not shown) [Compound 1010] was tested, and the “E. coli ATCC25922 MIC” value was “+ (a “+” indicates that the compound has an MIC value of 16 micrograms/ml or less)”.
`N=C(N)NCCCNC(=O)c1ccc(-n2cc3cc(-c4ccc(S(=O)(=O)N(Cc5ccc(Cl)c(Cl)c5)C5CCNCC5)cc4)[nH]c3nc2=O)cc1` [Compound 995] was tested, and the “E. coli ATCC25922 MIC” value was “+ (a “+” indicates that the compound has an MIC value of 16 micrograms/ml or less)”.
`N=C(N)NCCCNC(=O)c1ccc(-n2cc3cc(-c4ccc(S(=O)(=O)N(Cc5cc(OC(F)(F)F)ccc5F)C5CCNCC5)cc4)[nH]c3nc2=O)cc1` [Compound 1090] was tested, and the “E. coli ATCC25922 MIC” value was “+ (a “+” indicates that the compound has an MIC value of 16 micrograms/ml or less)”.
With `CN(CCc1ccccn1)C(=O)c1cc(-c2cc3cn(-c4ccc(CNCCCNC(=N)N)cc4)c(=O)nc3[nH]2)cc(N2CCNCC2)c1` [Compound 964] the “E. coli ATCC25922 MIC” value was “− (a “−” indicates that the compound has an MIC value greater than 16 micrograms/ml)”.
`N=C(N)NCCCNCc1ccc(-n2cc3cc(-c4ccc(S(=O)(=O)N(CCCn5cnnc5)C5CCNCC5)cc4)[nH]c3nc2=O)cc1` [Compound 856] was tested, and the “E. coli ATCC25922 MIC” value was “+ (a “+” indicates that the compound has an MIC value of 16 micrograms/ml or less)”.
In the case of `N=C(N)NCCCNCc1ccc(-n2cc3cc(-c4ccc(S(=O)(=O)N(CCCc5cccnc5)C5CCNCC5)cc4)[nH]c3nc2=O)cc1` [Compound 801], the “E. coli ATCC25922 MIC” value is reported as “+ (a “+” indicates that the compound has an MIC value of 16 micrograms/ml or less)”.
For `COc1ccc(CN(C2CCNCC2)S(=O)(=O)c2ccc(-c3cc4cn(-c5ccc(C(N)=O)cc5)c(=O)nc4[nH]3)cc2)cc1[N+](=O)[O-]` [Compound 1091], the “E. coli ATCC25922 MIC” value was “− (a “−” indicates that the compound has an MIC value greater than 16 micrograms/ml)”.
In the case of `N=C(N)N[C@@H]1CCN(Cc2ccc(-n3cc4cc(-c5ccc(S(=O)(=O)N(CCCn6cnnc6)C6CCNCC6)cc5)[nH]c4nc3=O)cc2)C1` [Compound 1219], the “E. coli ATCC25922 MIC” value is reported as “− (a “−” indicates that the compound has an MIC value greater than 16 micrograms/ml)”.
`N=C(N)N[C@@H]1CCCN(Cc2ccc(-n3cc4cc(-c5ccc(S(=O)(=O)NC6CCNCC6)cc5)[nH]c4nc3=O)cc2)C1` [Compound 1119] was tested, and the “E. coli ATCC25922 MIC” value was “+ (a “+” indicates that the compound has an MIC value of 16 micrograms/ml or less)”.
For `CC1CN(S(=O)(=O)c2ccc(-c3cc4cn(-c5ccc(CNCCCNC(=N)N)cc5)c(=O)nc4[nH]3)cc2)CC(C)N1` (stereo not shown) [Compound 872], the “E. coli ATCC25922 MIC” value was “+ (a “+” indicates that the compound has an MIC value of 16 micrograms/ml or less)”.
With `N=C(N)NCCCNCc1ccc(-n2cc3cc(-c4ccc(S(=O)(=O)CCCNC5CCNCC5)cc4)[nH]c3nc2=O)cc1` [Compound 1285] the “E. coli ATCC25922 MIC” value was “+ (a “+” indicates that the compound has an MIC value of 16 micrograms/ml or less)”.
`NC(N)=NCCCNCc1ccc(-n2cc3cc(-c4cccc(S(=O)(=O)N(CCN5CCCC5)C5CCNCC5)c4)[nH]c3nc2=O)cc1` [Compound 1186] was tested, and the “E. coli ATCC25922 MIC” value was “+ (a “+” indicates that the compound has an MIC value of 16 micrograms/ml or less)”.
For `N=C(N)NCCCNCc1ccc(-n2cc3cc(-c4cc(OC(F)(F)F)cc(S(=O)(=O)CCCN)c4)[nH]c3nc2=O)cc1` [Compound 2052a], the “E. coli ATCC25922 MIC” value was “+ (a “+” indicates that the compound has an MIC value of 16 micrograms/ml or less)”.
With `CC(=O)NCCCS(=O)(=O)c1ccc(-c2cc3cn(-c4ccc(C(=O)NCCCNC(=N)N)cc4)c(=O)nc3[nH]2)cc1` [Compound 1274] the “E. coli ATCC25922 MIC” value was “− (a “−” indicates that the compound has an MIC value greater than 16 micrograms/ml)”.
With `CC(CCN)c1cc(-c2cc3cn(-c4ccc(CNCCCNC(=N)N)cc4)c(=O)nc3[nH]2)ccc1Cl` (stereo not shown) [Compound 2093a] the “E. coli ATCC25922 MIC” value was “+ (a “+” indicates that the compound has an MIC value of 16 micrograms/ml or less)”.
With `N=C(N)NCCCNCc1ccc(-n2cc3cc(-c4cccc(OCC(F)(F)CN)c4)[nH]c3nc2=O)cc1` [Compound 1404] the “E. coli ATCC25922 MIC” value was “− (a “−” indicates that the compound has an MIC value greater than 16 micrograms/ml)”.
In the case of `CC(=O)NCCCS(=O)(=O)c1ccc(-c2cc3cn(-c4ccc(CNCCCNC(=N)N)cc4)c(=O)nc3[nH]2)cc1` [Compound 1277], the “E. coli ATCC25922 MIC” value is reported as “− (a “−” indicates that the compound has an MIC value greater than 16 micrograms/ml)”.
`COCc1cc(OCC(F)CN)cc(-c2cc3cn(-c4ccc(CNCCCNC(=N)N)cc4)c(=O)nc3[nH]2)c1` (stereo not shown) [Compound 2036a] was tested, and the “E. coli ATCC25922 MIC” value was “+ (a “+” indicates that the compound has an MIC value of 16 micrograms/ml or less)”.
With `NC(N)=NCCC(=O)NCc1ccc(-n2cc3cc(-c4ccc(S(=O)(=O)N(Cc5ccccc5SC(F)(F)F)C5CCNCC5)cc4)[nH]c3nc2=O)cc1` [Compound 1205] the “E. coli ATCC25922 MIC” value was “− (a “−” indicates that the compound has an MIC value greater than 16 micrograms/ml)”.
With `N=C(N)NCCCNC(=O)c1ccc(-n2cc3cc(-c4ccc(S(=O)(=O)NC5CCNCC5)cc4)[nH]c3nc2=O)cc1` [Compound 893] the “E. coli ATCC25922 MIC” value was “+ (a “+” indicates that the compound has an MIC value of 16 micrograms/ml or less)”.
`N=C(N)NOCCNC(=O)c1ccc(-n2cc3cc(-c4ccc(S(=O)(=O)NC5CCNCC5)cc4)[nH]c3nc2=O)cc1` [Compound 1137] was tested, and the “E. coli ATCC25922 MIC” value was “− (a “−” indicates that the compound has an MIC value greater than 16 micrograms/ml)”.
`N=C(N)NCCCNCc1ccc(-n2cc3cc(-c4ccc(S(=O)(=O)N(CC5COc6ccccc6O5)C5CCOCC5)cc4)[nH]c3nc2=O)cc1` (stereo not shown) [Compound 877] was tested, and the “E. coli ATCC25922 MIC” value was “− (a “−” indicates that the compound has an MIC value greater than 16 micrograms/ml)”.

Same assay, conditions: Escherichia coli, ATCC25922, Escherichia coli strain ATCC25922, microdilution; read-out: E. coli ATCC25922 MIC
In the case of `NCc1ccc(-n2cc3cc(-c4cccc(S(=O)(=O)N(CCC(N)=O)C5CCNCC5)c4)[nH]c3nc2=O)cc1` [Compound 1249], the MIC is reported as over 16 µg/mL.
In the case of `N=C(N)NCCCNCc1ccc(-n2cc3cc(-c4ccc(S(=O)(=O)N(CC5CC5)C5CCNCC5)cc4)[nH]c3nc2=O)cc1` [Compound 728], the MIC is reported as under 16 µg/mL.
`CN1CCN(C(=O)c2ccc(-c3cn4cc(-c5ccc(CNCCCN)cc5)c(=O)nc4[nH]3)cc2)CC1` [Compound 699] gave an MIC of over 16 µg/mL.
For `NCCC(=O)NCCCn1cc2cc(-c3ccc(S(=O)(=O)N[C@@H]4CCCNC4)cc3)[nH]c2nc1=O` [Compound 1298], the MIC was over 16 µg/mL.
`O=C(NC1CCNCC1)c1ccc(-c2cc3cn(-c4ccc(CNCc5c[nH]nn5)cc4)c(=O)nc3[nH]2)cc1` [Compound 240] was tested, and the MIC was over 16 µg/mL.
`NCCCNCc1ccc(-c2cn3cc(-c4ccc(S(=O)(=O)N5CCNCC5)cc4)[nH]c3nc2=O)cc1` [Compound 789] was tested, and the MIC was under 16 µg/mL.
In the case of `NCc1ccc(-n2cc3cc(-c4ccc(S(=O)(=O)NC5CCNCC5)c(Cl)c4)[nH]c3nc2=O)cc1` [Compound 245], the MIC is reported as over 16 µg/mL.
`N[C@H]1CCCN(Cc2ccc(-n3cc4cc[nH]c4nc3=O)cc2)C1` [Compound 1156] showed an MIC of over 16 µg/mL.
`N=C(N)NCCCNCc1ccc(-n2cc3cc(CCN(C(=O)c4ccccc4)C4CCNCC4)[nH]c3nc2=O)cc1` [Compound 688] showed an MIC of under 16 µg/mL.
`N=C(N)NCCCNCc1ccc(-c2cn3cc(-c4ccc(S(=O)(=O)N5CCC(F)C5)cc4)[nH]c3nc2=O)cc1` (stereo not shown) [Compound 744] was tested, and the MIC was over 16 µg/mL.
With `N=C(N)NCCCNCc1ccc(-c2cn3cc(CCc4cc(F)c(F)cc4F)[nH]c3nc2=O)cc1` [Compound 952] the MIC was over 16 µg/mL.
For `N=C(N)NCCCNCc1ccc(-n2cc3cc(C4CCCN(CCNC(N)=O)C4)[nH]c3nc2=O)cc1` (stereo not shown) [Compound 2019a], the MIC was under 16 µg/mL.
In the case of `CC(C)NC(=O)CCc1cc2cn(-c3ccc(CNCCCN)cc3)c(=O)nc2[nH]1` [Compound 293], the MIC is reported as over 16 µg/mL.
With `CC(=O)NCCOc1cccc(-c2cc3cn(-c4ccc(CN)cc4)c(=O)nc3[nH]2)c1` [Compound 1143] the MIC was over 16 µg/mL.
`NCCCc1cccc(-c2cc3cn(-c4ccc(CN)cc4)c(=O)nc3[nH]2)c1` [Compound 2057a] showed an MIC of over 16 µg/mL.
Work on `N=C(N)NCCCNCc1ccc(-c2cn3cc(-c4ccc(C(=O)N5CCC(O)C5)cc4)[nH]c3nc2=O)cc1` (stereo not shown) [Compound 653] yielded an MIC of over 16 µg/mL.
In the case of `Cn1cc2cc(-c3ccc(C(=O)NC4CCNCC4)cc3)[nH]c2nc1=O` [Compound 581], the MIC is reported as over 16 µg/mL.
For `Cn1cncc1-c1cc2cn(-c3ccc(CN(CCCN)CCCN)cc3)c(=O)nc2[nH]1` [Compound 184], the MIC was under 16 µg/mL.
`NCCCCN1CC=C(n2cc3cc(-c4ccc(F)cc4)[nH]c3nc2=O)CC1` [Compound 511] gave an MIC of over 16 µg/mL.
`CN(C)CCOc1ccccc1-c1cc2cn(-c3ccc(CNCCCNC(=N)N)cc3)c(=O)nc2[nH]1` [Compound 1167] showed an MIC of over 16 µg/mL.
Molecule `N=C(N)NCCCNCc1ccc(-n2cc3cc(C4CCCNC4)[nH]c3nc2=O)cc1` (stereo not shown) [Compound 1210] has an MIC of under 16 µg/mL.
In the case of `N=C(N)CCCOc1cccc(-c2cc3cn(-c4ccc(CN)cc4)c(=O)nc3[nH]2)c1` [Compound 1150], the MIC is reported as over 16 µg/mL.
With `NCCCNCc1ccc(-n2cc3cc(-c4cc(F)c(F)c(F)c4)[nH]c3nc2=O)cc1` [Compound 306] the MIC was over 16 µg/mL.
Molecule `N=C(N)NCCCNCc1ccc(-c2cn3cc(-c4ccc(C5=CCN(C(=N)N)CC5)cc4)[nH]c3nc2=O)cc1` [Compound 650] has an MIC of under 16 µg/mL.
With `N=C(N)NCCCNCc1ccc(-c2cn3cc(-c4ccc(C(=O)NC56CC7CC(CC(C7)C5)C6)cc4)[nH]c3nc2=O)cc1` [Compound 724] the MIC was under 16 µg/mL.
`NCCCCCN1CC=C(n2cc3cc(-c4ccc(F)cc4)[nH]c3nc2=O)CC1` [Compound 508] showed an MIC of over 16 µg/mL.
In the case of `N=C(N)NCCCNCc1ccc(-n2cc3cc(C4CN(C(=N)N)CCO4)[nH]c3nc2=O)cc1` (stereo not shown) [Compound 1335], the MIC is reported as under 16 µg/mL.
With `NCCCNCc1ccc(-c2cn3cc(-c4ccc(C5=CCNCC5)cc4)[nH]c3nc2=O)cc1` [Compound 649] the MIC was under 16 µg/mL.
